Data as given in patent US9670161B2, “5-fluoro-N-(pyridin-2-yl)pyridin-2-amine derivatives containing a sulfone group” (BAYER PHARMA AKTIENGESELLSCHAFT, priority 2012, dated 2017).

Key:
CDK2/CycE = CDK2/CycE (Homo sapiens (Human), UniProt P24941); experiment: CDK2/CycE high ATP kinase assay (TR-FRET, 2 mM ATP); type: biochemical; conditions: Method 2b
Method: 2b. CDK2/CycE High ATP Kinase Assay
CDK2/CycE-inhibitory activity of compounds of the present invention at 2 mM adenosine-tri-phosphate (ATP) was quantified employing the CDK2/CycE TR-FRET (TR-FRET=Time Resolved Fluorescence Energy Transfer) assay as described in the following paragraphs.
Recombinant fusion proteins of GST and human CDK2 and of GST and human CycE, expressed in insect cells (Sf9) and purified by Glutathion-Sepharose affinity chromatography, were purchase from ProQinase GmbH (Freiburg, Germany). As substrate for the kinase reaction biotinylated peptide biotin-Ttds-YISPLKSPYKISEG (C-terminus in amid form) was used which can be purchased e.g. form the company JERINI peptide technologies (Berlin, Germany).
(§1) For the assay 50 nl of a 100 fold concentrated solution of the test compound in DMSO was pipetted into a black low volume 384 well microtiter plate (Greiner Bio-One, Frickenhausen, Germany), 2 μl of a solution of CDK2/CycE in aqueous assay buffer [50 mM Tris/HCl pH 8.0, 10 mM MgCl2, 1.0 mM dithiothreitol, 0.1 mM sodium ortho-vanadate, 0.01% (v/v) Nonidet-P40 (Sigma)] were added and the mixture was incubated for 15 min at 22° C. to allow pre-binding of the test compounds to the enzyme before the start of the kinase reaction. Then the kinase reaction was started by the addition of 3 μl of a solution ATP (3.33 mM=>final conc. in the 5 μl assay volume is 2 mM) and substrate (1.25 μM=>final conc. in the 5 μl assay volume is 0.75 μM) in assay buffer and the resulting mixture was incubated for a reaction time of 25 min at 22° C. The concentration of CDK2/CycE was adjusted depending of the activity of the enzyme lot and was chosen appropriate to have the assay in the linear range, typical concentrations were in the range of 15 ng/ml. The reaction was stopped by the addition of 5 μl of a solution of TR-FRET detection reagents (0.2 μM streptavidine-XL665 [Cisbio Bioassays, Codolet, France] and 1 nM anti-RB(pSer807/pSer811)-antibody from BD Pharmingen [#558389] and 1.2 nM LANCE EU-W1024 labeled anti-mouse IgG antibody [Perkin-Elmer, product no. AD0077, as an alternative a Terbium-cryptate-labeled anti-mouse IgG antibody from Cisbio Bioassays can be used]) in an aqueous EDTA-solution (100 mM EDTA, 0.2% (w/v) bovine serum albumin in 100 mM HEPES/NaOH pH 7.0).
(§2) The resulting mixture was incubated 1 h at 22° C. to allow the formation of complex between the phosphorylated biotinylated peptide and the detection reagents. Subsequently the amount of phosphorylated substrate was evaluated by measurement of the resonance energy transfer from the Eu-chelate to the streptavidine-XL. Therefore, the fluorescence emissions at 620 nm and 665 nm after excitation at 350 nm were measured in a TR-FRET reader, e.g. a Rubystar (BMG Labtechnologies, Offenburg, Germany) or a Viewlux (Perkin-Elmer). The ratio of the emissions at 665 nm and at […] was taken as the measure for the amount of phosphorylated substrate. The data were normalised (enzyme reaction without inhibitor=0% inhibition, all other assay components but no enzyme=100% inhibition).

CDK9/CycT1 = CDK9/CycT1 (Homo sapiens (Human), UniProt P50750); experiment: CDK9/CycT1 kinase assay (TR-FRET, 10 μM ATP); type: biochemical; conditions: Method 1a
Sequence of CDK9/CycT1 (P50750 whole entry): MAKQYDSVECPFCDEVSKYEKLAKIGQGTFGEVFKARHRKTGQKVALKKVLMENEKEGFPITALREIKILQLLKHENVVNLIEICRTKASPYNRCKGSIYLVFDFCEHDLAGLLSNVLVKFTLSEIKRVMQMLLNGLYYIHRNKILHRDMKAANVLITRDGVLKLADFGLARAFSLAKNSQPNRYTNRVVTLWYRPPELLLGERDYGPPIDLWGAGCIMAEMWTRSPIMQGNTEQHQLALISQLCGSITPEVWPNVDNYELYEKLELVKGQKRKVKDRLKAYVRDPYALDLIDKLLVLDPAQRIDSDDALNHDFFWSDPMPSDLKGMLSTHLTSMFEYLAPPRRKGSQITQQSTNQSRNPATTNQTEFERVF
Sequence of CDK9/CycT1 (O60563 whole entry partner): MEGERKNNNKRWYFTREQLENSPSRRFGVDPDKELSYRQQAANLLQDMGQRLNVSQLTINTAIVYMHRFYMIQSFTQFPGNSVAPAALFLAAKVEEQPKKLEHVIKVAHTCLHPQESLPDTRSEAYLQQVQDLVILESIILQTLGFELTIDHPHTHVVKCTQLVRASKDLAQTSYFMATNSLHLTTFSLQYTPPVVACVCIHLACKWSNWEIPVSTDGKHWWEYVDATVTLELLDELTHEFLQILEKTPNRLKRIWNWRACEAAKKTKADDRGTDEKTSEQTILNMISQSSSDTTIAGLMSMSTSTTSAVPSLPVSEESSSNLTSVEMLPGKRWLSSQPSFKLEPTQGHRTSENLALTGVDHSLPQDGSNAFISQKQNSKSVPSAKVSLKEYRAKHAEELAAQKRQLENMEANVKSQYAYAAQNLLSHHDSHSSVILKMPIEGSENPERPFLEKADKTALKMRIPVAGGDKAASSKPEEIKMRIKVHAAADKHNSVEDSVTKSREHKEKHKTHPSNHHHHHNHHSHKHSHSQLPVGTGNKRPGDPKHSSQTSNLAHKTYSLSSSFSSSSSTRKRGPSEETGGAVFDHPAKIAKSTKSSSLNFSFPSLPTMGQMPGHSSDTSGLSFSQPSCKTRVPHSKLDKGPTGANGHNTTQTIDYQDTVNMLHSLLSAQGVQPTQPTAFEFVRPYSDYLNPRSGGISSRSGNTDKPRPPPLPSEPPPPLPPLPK
Excerpt: 1a. CDK9/CycT1 Kinase Assay:
CDK9/CycT1-inhibitory activity of compounds of the present invention was quantified employing the CDK9/CycT1 TR-FRET assay as described in the following paragraphs:
Recombinant full-length His-tagged human CDK9 and CycT1, expressed in insect cells and purified by Ni-NTA affinity chromatography, were purchased from Invitrogen (Cat. No PV4131). As substrate for the kinase reaction biotinylated peptide biotin-Ttds-YISPLKSPYKISEG (C-terminus in amid form) was used which can be purchased e.g. form the company JERINI Peptide Technologies (Berlin, Germany).
as §1, with “CDK9/CycT1” for “CDK2/CycE”, “of adenosine-tri-phosphate (ATP, 16.7” for “ATP (3.33 mM=>final conc. in the 5 μl assay volume is 2 mM) and substrate (1.25”, “10 μM) and substrate (1.67 μM=>final conc. in the 5 μl assay volume is 1” for “0.75”, “1 μg/mL.” for “15 ng/ml.”, “AD0077])” for “AD0077, as an alternative a Terbium-cryptate-labeled anti-mouse IgG antibody from Cisbio Bioassays can be used])”
as §2, with “nm was” for “nm were”, “a HTRF” for “a TR-FRET”

SMILES | IC50 (CDK2/CycE) [nM] | IC50 (CDK9/CycT1) [nM]
COc1cc(F)ccc1-c1cc(Nc2cc(CS(C)(=O)=O)cc(F)n2)ncc1F [Example 3, 5-Fluoro-4-(4-fluoro-2-methoxyphenyl)-N-{6-fluoro-4-[(methylsulfonyl)methyl]pyridin-2-yl}pyridin-2-amine] | 787 | 3
COc1cc(F)ccc1-c1cc(Nc2cc(CS(C)(=O)=O)ccn2)ncc1F [Example 1, 5-Fluoro-4-(4-fluoro-2-methoxyphenyl)-N-{4-[(methylsulfonyl)methyl]pyridin-2-yl}pyridin-2-amine] | 2180 | 2

These reach a lower IC50 (CDK2/CycE). Values come first.

IC50 (CDK2/CycE) [nM] | IC50 (CDK9/CycT1) [nM] | SMILES
169 | 4 | COc1cc(F)ccc1-c1cc(Nc2cc(CS(C)(=O)=O)cc(C(F)(F)F)n2)ncc1F [Example 4, 5-Fluoro-4-(4-fluoro-2-methoxyphenyl)-N-{4-[(methylsulfonyl)methyl]-6-(trifluoromethyl)pyridin-2-yl}pyridin-2-amine]
103 | 2 | COc1cc(F)ccc1-c1cc(Nc2cc(CS(C)(=O)=O)cc(C(F)F)n2)ncc1F [Example 5, N-{6-(Difluoromethyl)-4-[(methylsulfonyl)methyl]pyridin-2-yl}-5-fluoro-4-(4-fluoro-2-methoxyphenyl)pyridin-2-amine]
625 | 3 | COc1cc(F)ccc1-c1cc(Nc2cc(CS(C)(=O)=O)cc(C)n2)ncc1F [Example 2, 5-Fluoro-4-(4-fluoro-2-methoxyphenyl)-N-{6-methyl-4-[(methylsulfonyl)methyl]pyridin-2-yl}pyridin-2-amine]
